Experimental data published in patent publication US20250100996A1, “HETEROCYCLOALKYL AND HETEROARYL COMPOUNDS AND PHARMACEUTICAL COMPOSITIONS THAT MODULATE IKZF2” (Plexium, Inc., priority 2021, published 2025).

What was measured:
[1] = target: T1, IKZF3 (Aiolos) (Homo sapiens, UniProt Q9UKT9); test: IKZF3 reporter degradation assay (HEK 293T IKZF3-mNeonGreen reporter cell line); format: cell-based; settings: HEK 293T IKZF3-mNeonGreen reporter, 24 hours incubation
T1 construct: Leu-Asp junction (codons ctcgac before the linker); mScarlet (behind P2A) (C, cleaved yes); expressed in transfected cells
T1 sequence (Q96SW2 whole entry partner): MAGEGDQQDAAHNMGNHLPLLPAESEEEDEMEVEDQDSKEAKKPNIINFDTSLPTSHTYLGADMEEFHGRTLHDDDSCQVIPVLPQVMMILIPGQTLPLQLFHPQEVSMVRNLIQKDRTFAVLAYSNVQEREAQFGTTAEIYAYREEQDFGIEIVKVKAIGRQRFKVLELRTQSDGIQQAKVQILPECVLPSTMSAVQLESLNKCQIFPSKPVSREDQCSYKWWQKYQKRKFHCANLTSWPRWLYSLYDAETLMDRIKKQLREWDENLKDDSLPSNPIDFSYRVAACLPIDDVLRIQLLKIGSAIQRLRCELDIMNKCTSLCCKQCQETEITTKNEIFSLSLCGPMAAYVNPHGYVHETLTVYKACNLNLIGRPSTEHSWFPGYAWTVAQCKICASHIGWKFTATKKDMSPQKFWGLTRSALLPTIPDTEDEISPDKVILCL
T1 sequence (Q16531 whole entry partner): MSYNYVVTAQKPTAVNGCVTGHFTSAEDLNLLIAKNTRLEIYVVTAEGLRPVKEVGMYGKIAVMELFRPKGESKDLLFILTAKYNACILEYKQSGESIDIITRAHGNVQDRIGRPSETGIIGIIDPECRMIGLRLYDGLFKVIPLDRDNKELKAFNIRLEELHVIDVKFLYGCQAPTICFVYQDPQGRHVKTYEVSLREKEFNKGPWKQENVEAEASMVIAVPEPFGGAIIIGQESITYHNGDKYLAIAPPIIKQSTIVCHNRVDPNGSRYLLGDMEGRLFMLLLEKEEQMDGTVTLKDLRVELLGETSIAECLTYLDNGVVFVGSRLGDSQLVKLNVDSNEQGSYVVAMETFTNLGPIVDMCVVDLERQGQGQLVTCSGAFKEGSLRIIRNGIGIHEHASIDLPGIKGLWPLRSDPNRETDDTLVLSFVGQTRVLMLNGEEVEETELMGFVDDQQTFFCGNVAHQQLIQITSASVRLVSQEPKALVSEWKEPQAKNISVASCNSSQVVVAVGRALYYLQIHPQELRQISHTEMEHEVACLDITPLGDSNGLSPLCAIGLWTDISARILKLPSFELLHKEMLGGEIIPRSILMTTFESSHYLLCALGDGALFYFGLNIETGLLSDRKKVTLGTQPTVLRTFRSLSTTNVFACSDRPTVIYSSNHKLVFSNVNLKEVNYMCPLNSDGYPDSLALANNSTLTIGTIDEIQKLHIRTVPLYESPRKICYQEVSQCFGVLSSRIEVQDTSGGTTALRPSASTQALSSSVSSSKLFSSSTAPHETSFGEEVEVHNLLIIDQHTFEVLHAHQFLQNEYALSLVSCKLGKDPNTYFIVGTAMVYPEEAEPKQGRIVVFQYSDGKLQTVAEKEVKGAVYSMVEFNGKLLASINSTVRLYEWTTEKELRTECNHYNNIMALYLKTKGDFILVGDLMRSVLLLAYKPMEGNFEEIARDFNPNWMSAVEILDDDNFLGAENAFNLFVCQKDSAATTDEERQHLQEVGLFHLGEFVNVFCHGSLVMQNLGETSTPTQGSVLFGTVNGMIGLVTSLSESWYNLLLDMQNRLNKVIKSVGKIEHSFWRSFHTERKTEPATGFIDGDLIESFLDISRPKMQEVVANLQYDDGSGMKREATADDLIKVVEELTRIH
T1 sequence (Q9UKT9 whole entry): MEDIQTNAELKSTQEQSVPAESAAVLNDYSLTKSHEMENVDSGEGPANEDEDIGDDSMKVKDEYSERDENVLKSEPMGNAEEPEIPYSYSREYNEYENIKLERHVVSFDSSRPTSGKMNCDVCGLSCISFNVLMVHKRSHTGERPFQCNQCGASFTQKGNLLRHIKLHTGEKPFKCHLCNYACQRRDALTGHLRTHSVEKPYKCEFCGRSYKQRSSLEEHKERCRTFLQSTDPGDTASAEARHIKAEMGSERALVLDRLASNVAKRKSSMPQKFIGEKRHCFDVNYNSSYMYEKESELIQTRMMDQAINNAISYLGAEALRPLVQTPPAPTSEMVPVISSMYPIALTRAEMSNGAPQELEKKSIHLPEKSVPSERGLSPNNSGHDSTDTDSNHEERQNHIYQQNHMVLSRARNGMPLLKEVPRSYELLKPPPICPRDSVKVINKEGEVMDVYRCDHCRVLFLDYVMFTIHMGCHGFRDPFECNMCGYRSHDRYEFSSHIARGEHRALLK
Outline: (§1)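 Cells were seeded overnight and then dosed with DMSO dilutions of compound. After 24 h, the plates were imaged live in the FITC and TRITC channels. The fraction of reporter-positive cells was plotted and fitted to a four-parameter logistic curve to give DC50.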

[2] = target: T2, IKZF1 (Ikaros) (Homo sapiens, UniProt Q13422); test: IKZF1 reporter degradation assay (HEK 293T IKZF1-mNeonGreen reporter cell line); format: cell-based; settings: HEK 293T IKZF1-mNeonGreen reporter, 24 hours incubation
T2 construct: mScarlet (behind P2A) (C, cleaved yes); expressed in transfected cells
T2 sequence (Q96SW2 whole entry partner): as the sequence (Q96SW2 whole entry partner) above
T2 sequence (Q16531 whole entry partner): as the sequence (Q16531 whole entry partner) above
T2 sequence (Q13422 whole entry): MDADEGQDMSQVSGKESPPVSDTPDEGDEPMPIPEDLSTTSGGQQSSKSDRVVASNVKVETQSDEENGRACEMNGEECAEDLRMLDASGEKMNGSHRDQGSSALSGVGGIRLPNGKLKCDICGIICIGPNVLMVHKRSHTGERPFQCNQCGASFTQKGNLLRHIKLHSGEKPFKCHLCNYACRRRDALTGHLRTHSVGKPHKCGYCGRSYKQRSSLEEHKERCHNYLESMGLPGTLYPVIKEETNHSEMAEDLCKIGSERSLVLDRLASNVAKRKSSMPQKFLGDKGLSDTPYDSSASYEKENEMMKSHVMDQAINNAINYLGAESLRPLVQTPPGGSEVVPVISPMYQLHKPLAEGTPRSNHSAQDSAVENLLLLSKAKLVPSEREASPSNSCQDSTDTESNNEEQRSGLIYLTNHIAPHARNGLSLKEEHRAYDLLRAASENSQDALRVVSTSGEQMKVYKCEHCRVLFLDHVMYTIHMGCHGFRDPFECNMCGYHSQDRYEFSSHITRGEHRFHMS
Outline: as §1

[3] = target: T3, human E3 ligase component cereblon (CRBN) (Homo sapiens, UniProt Q96SW2); test: Cereblon (CRBN) target engagement, NanoBRET TE Intracellular E3 Ligase Assay in transfected HEK-293T cells; settings: read-out: CRBN Binding EC50
T3 construct: host or cells: HEK293T
T3 sequence (Q96SW2 whole entry): as the sequence (Q96SW2 whole entry partner) above
T3 sequence (Q16531 whole entry partner): as the sequence (Q16531 whole entry partner) above
Outline: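 Tracer displacement was read as the 610/450 nm BRET signal after 2 h at 37° C with an 11-point dilution series, typically 10 μM to 100 pM. Live HEK-293T cells expressed NanoLuc fused N-terminal to human CRBN together with DDB1. IC50 was fitted with a four-parameter logistic model.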

[4] = target: T4, IKZF2 (Helios) (Homo sapiens, UniProt Q96SW2+Q9UKS7); test: IKZF2 reporter degradation assay (HEK 293T IKZF2-mNeonGreen reporter cell line); format: cell-based; settings: HEK-293T, 24 h, @ 1 μM, HEK 293T IKZF2-mNeonGreen reporter, 24 hours incubation
T4 construct: Leu-Asp junction (codons ctcgac before the linker); mScarlet (behind P2A) (C, cleaved yes); expressed in transfected cells
T4 sequence (Q9UKS7 whole entry): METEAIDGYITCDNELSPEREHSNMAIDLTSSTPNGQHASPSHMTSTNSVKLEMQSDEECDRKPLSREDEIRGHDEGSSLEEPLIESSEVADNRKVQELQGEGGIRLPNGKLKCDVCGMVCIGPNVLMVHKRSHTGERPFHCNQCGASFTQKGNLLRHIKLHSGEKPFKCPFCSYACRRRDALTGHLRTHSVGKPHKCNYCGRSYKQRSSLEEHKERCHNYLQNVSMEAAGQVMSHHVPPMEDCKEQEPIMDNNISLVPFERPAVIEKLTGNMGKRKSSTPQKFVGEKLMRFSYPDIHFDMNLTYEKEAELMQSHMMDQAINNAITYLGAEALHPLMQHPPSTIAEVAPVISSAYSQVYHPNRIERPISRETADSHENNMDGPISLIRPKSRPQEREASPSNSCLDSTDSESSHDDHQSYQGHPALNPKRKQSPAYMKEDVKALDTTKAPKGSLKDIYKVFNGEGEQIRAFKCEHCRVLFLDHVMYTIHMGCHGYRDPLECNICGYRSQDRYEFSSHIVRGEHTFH
T4 sequence (Q96SW2 whole entry): as the sequence (Q96SW2 whole entry partner) above
T4 sequence (Q16531 whole entry partner): as the sequence (Q16531 whole entry partner) above
Outline: as §1

[5] = target: T5, IKZF2 (Helios) (Homo sapiens, UniProt Q9UKS7); test: as above; format: cell-based; settings: HEK 293T IKZF2-mNeonGreen reporter, 24 hours incubation
T5 construct: Leu-Asp junction (codons ctcgac before the linker); mScarlet (behind P2A) (C, cleaved yes); expressed in transfected cells
T5 sequence (Q9UKS7 whole entry): as the sequence (Q9UKS7 whole entry) above
T5 sequence (Q96SW2 whole entry, further chain): as the sequence (Q96SW2 whole entry partner) above
T5 sequence (Q16531 whole entry partner): as the sequence (Q16531 whole entry partner) above
Outline: as §1

`O=C1CCC(N2Cc3cc(O[C@@H]4CCCC[C@@H]4N4CC(c5ccc(C(F)(F)F)cn5)C4)ccc3C2=O)C(=O)N1` (mixture of isomers) [Compound 182-B, Rac-3-(1-oxo-5-(((cis)-2-(3-(5-(trifluoromethyl)pyridin-2-yl)azetidin-1-yl)cyclohexyl)oxy)isoindolin-2-yl)piperidine-2,6-dione] was tested, and the DC50 [1] was over 30000 nM, the DC50 [2] was over 30000 nM and the EC50 [3] was 9 nM. The inhibition at 1 µM [4] was 78.3% and the DC50 [5] was 5 nM.
`O=C1CCC(N2Cc3cc(OC4CCCCC4N4CC(c5ccnc6[nH]ccc56)C4)ccc3C2=O)C(=O)N1` (centres unmarked) [Compound 199-B, 3-(5-((2-(3-(1H-pyrrolo[2,3-b]pyridin-4-yl)azetidin-1-yl)cyclohexyl)oxy)-1-oxoisoindolin-2-yl)piperidine-2,6-dione] gave a DC50 [1] of over 30000 nM, a DC50 [2] of over 30000 nM and an EC50 [3] of 21 nM. The inhibition at 1 µM [4] was 75% and the DC50 [5] was 14 nM.
Compound `O=C1CCC(N2Cc3cc(OC4CCC[C@@H]4N4CC(c5cncnc5)C4)ccc3C2=O)C(=O)N1` (mixture of isomers) [Compound 196-B, Rac-3-(1-oxo-5-(((cis)-2-(3-(pyrimidin-5-yl)azetidin-1-yl)cyclopentyl)oxy)isoindolin-2-yl)piperidine-2,6-dione] has a DC50 [1] of over 30000 nM, a DC50 [2] of over 30000 nM and an EC50 [3] of 214 nM. It also gave an inhibition at 1 µM [4] of 17.6% and a DC50 [5] of 601 nM.
In the case of `O=C1CCC(N2Cc3cc(OC4CCC[C@@H]4N4CC(c5cccnc5)C4)ccc3C2=O)C(=O)N1` (mixture of isomers) [Compound 207-B, Rac-3-(1-oxo-5-(((cis)-2-(3-(pyridin-3-yl)azetidin-1-yl)cyclopentyl)oxy)isoindolin-2-yl)piperidine-2,6-dione], the DC50 [1] is reported as over 30000 nM, the DC50 [2] is reported as over 30000 nM and the EC50 [3] is reported as 104 nM. It also gave an inhibition at 1 µM [4] of 24.8% and a DC50 [5] of 1470 nM.
`Cc1nccc(C2CN(C3CCCCC3Oc3ccc4c(c3)CN(C3CCC(=O)NC3=O)C4=O)C2)n1` (centres unmarked) [Compound 190-B, 3-(5-((2-(3-(2-methylpyrimidin-4-yl)azetidin-1-yl)cyclohexyl)oxy)-1-oxoisoindolin-2-yl)piperidine-2,6-dione] gave a DC50 [1] of over 30000 nM, a DC50 [2] of over 30000 nM and an EC50 [3] of 44 nM. It also gave an inhibition at 1 µM [4] of 74.3% and a DC50 [5] of 71 nM.
In the case of `O=C1CCC(N2Cc3cc(OC4CCCCC4N4CC(c5ncc(C6CC6)cn5)C4)ccc3C2=O)C(=O)N1` (centres unmarked) [Compound 177-B, 3-(5-((2-(3-(5-cyclopropylpyrimidin-2-yl)azetidin-1-yl)cyclohexyl)oxy)-1-oxoisoindolin-2-yl)piperidine-2,6-dione], the DC50 [1] is reported as over 30000 nM, the DC50 [2] is reported as over 30000 nM and the EC50 [3] is reported as 2 nM. It also gave an inhibition at 1 µM [4] of 70.3% and a DC50 [5] of 4 nM.
`COc1cc(C2CN(C3CCCC3Oc3ccc4c(c3)CN(C3CCC(=O)NC3=O)C4=O)C2)ccn1` (centres unmarked) [Compound 170-B, 3-(5-((2-(3-(2-methoxypyridin-4-yl)azetidin-1-yl)cyclopentyl)oxy)-1-oxoisoindolin-2-yl)piperidine-2,6-dione] gave a DC50 [1] of over 30000 nM, a DC50 [2] of over 30000 nM and an EC50 [3] of 109 nM. It also gave an inhibition at 1 µM [4] of 54.6% and a DC50 [5] of 66 nM.
Compound `O=C1CCC(N2Cc3cc(OC4CCCC4N4CC(c5ccc6cccnc6c5)C4)ccc3C2=O)C(=O)N1` (centres unmarked) [Compound 169-B, 3-(1-oxo-5-((2-(3-(quinolin-7-yl)azetidin-1-yl)cyclopentyl)oxy)isoindolin-2-yl)piperidine-2,6-dione] has a DC50 [1] of over 30000 nM, a DC50 [2] of over 30000 nM and an EC50 [3] of 13 nM. The inhibition at 1 µM [4] was 56.3% and the DC50 [5] was 46 nM.
`O=C1CCC(N2Cc3cc(O[C@@H]4CCCC[C@@H]4N4CC(c5ccncc5Cl)C4)ccc3C2=O)C(=O)N1` (mixture of isomers) [Compound 162-B, Rac-3-(5-(((cis)-2-(3-(3-chloropyridin-4-yl)azetidin-1-yl)cyclohexyl)oxy)-1-oxoisoindolin-2-yl)piperidine-2,6-dione] showed a DC50 [1] of over 30000 nM, a DC50 [2] of over 30000 nM and an EC50 [3] of 59 nM. The inhibition at 1 µM [4] was 70.4% and the DC50 [5] was 22 nM.
`O=C1CCC(N2Cc3cc(O[C@@H]4CCCC[C@@H]4N4CC(c5ccc(C(F)(F)F)nc5)C4)ccc3C2=O)C(=O)N1` (mixture of isomers) [Compound 183-B, Rac-3-(1-oxo-5-(((cis)-2-(3-(6-(trifluoromethyl)pyridin-3-yl)azetidin-1-yl)cyclohexyl)oxy)isoindolin-2-yl)piperidine-2,6-dione] was tested, and the DC50 [1] was over 30000 nM, the DC50 [2] was over 30000 nM and the EC50 [3] was 15 nM. The inhibition at 1 µM [4] was 81.3% and the DC50 [5] was 10 nM.
Compound `O=C1CCC(N2Cc3cc(OC4CCCC4N4CC(c5cnc6ccccc6n5)C4)ccc3C2=O)C(=O)N1` (centres unmarked) [Compound 203-B, 3-(1-oxo-5-((2-(3-(quinoxalin-2-yl)azetidin-1-yl)cyclopentyl)oxy)isoindolin-2-yl)piperidine-2,6-dione] has a DC50 [1] of over 30000 nM, a DC50 [2] of over 30000 nM and an EC50 [3] of 20 nM. The inhibition at 1 µM [4] was 25.1% and the DC50 [5] was 130 nM.
`Cc1cnccc1C1CN(C2CCCCC2Oc2ccc3c(c2)CN(C2CCC(=O)NC2=O)C3=O)C1` (centres unmarked) [Compound 198-B, 3-(5-((2-(3-(3-methylpyridin-4-yl)azetidin-1-yl)cyclohexyl)oxy)-1-oxoisoindolin-2-yl)piperidine-2,6-dione] showed a DC50 [1] of over 30000 nM, a DC50 [2] of over 30000 nM and an EC50 [3] of 10 nM. For the same compound, the inhibition at 1 µM [4] was 72.3% and the DC50 [5] was 11 nM.
In the case of `O=C1CCC(N2Cc3cc(O[C@H]4CCCC[C@@H]4N4CC(c5ccc(C(F)(F)F)cn5)C4)ccc3C2=O)C(=O)N1` (mixture of isomers) [Compound 192-B, Rac-3-(1-oxo-5-(((trans)-2-(3-(5-(trifluoromethyl)pyridin-2-yl)azetidin-1-yl)cyclohexyl)oxy)isoindolin-2-yl)piperidine-2,6-dione], the DC50 [1] is reported as over 30000 nM, the DC50 [2] is reported as over 30000 nM and the EC50 [3] is reported as 7 nM. The inhibition at 1 µM [4] was 25.6% and the DC50 [5] was 123 nM.
`O=C1CCC(N2Cc3cc(O[C@@H]4CCC[C@@H]4N4CC(c5ccnc6ccccc56)C4)ccc3C2=O)C(=O)N1` (stereo partly drawn) [Compound 194-B, 3-(1-oxo-5-(((1R,2S)-2-(3-(quinolin-4-yl)azetidin-1-yl)cyclopentyl)oxy)isoindolin-2-yl)piperidine-2,6-dione] showed a DC50 [1] of 283 nM, an inhibition at 1 µM ([1]; HEK-293T, 24 h, @ 1 μM) of 26.6% and a DC50 [2] of over 30000 nM. It also gave an EC50 [3] of 17 nM, an inhibition at 1 µM [4] of 79.8% and a DC50 [5] of 7 nM.
In the case of `O=C1CCC(N2Cc3cc(O[C@H]4CCCC[C@@H]4N4CC(c5ccncc5Cl)C4)ccc3C2=O)C(=O)N1` (mixture of isomers) [Compound 173-B, Rac-3-(5-(((trans)-2-(3-(3-chloropyridin-4-yl)azetidin-1-yl)cyclohexyl)oxy)-1-oxoisoindolin-2-yl)piperidine-2,6-dione], the DC50 [1] is reported as over 30000 nM, the DC50 [2] is reported as over 30000 nM and the EC50 [3] is reported as 52 nM. For the same compound, the inhibition at 1 µM [4] was 66.7% and the DC50 [5] was 31 nM.
With `Cc1ccnc(C2CN([C@H]3CCCC[C@@H]3Oc3ccc4c(c3)CN(C3CCC(=O)NC3=O)C4=O)C2)n1` (mixture of isomers) [Compound 188-B, Rac-3-(5-(((trans)-2-(3-(4-methylpyrimidin-2-yl)azetidin-1-yl)cyclohexyl)oxy)-1-oxoisoindolin-2-yl)piperidine-2,6-dione] the DC50 [1] was over 30000 nM, the DC50 [2] was over 30000 nM and the EC50 [3] was 44 nM. It also gave an inhibition at 1 µM [4] of 42% and a DC50 [5] of 240 nM.
Work on `O=C1CCC(N2Cc3cc(OC4CCC[C@@H]4N4CC(c5ccccn5)C4)ccc3C2=O)C(=O)N1` (mixture of isomers) [Compound 209-B, Rac-3-(1-oxo-5-(((cis)-2-(3-(pyridin-2-yl)azetidin-1-yl)cyclopentyl)oxy)isoindolin-2-yl)piperidine-2,6-dione] yielded a DC50 [1] of over 30000 nM, a DC50 [2] of over 30000 nM and an EC50 [3] of 58 nM. The inhibition at 1 µM [4] was 38.9% and the DC50 [5] was 230 nM.
`Cc1cnc(C2CN([C@H]3CCCC[C@@H]3Oc3ccc4c(c3)CN(C3CCC(=O)NC3=O)C4=O)C2)nc1` (mixture of isomers) [Compound 189-B, Rac-3-(5-(((trans)-2-(3-(5-methylpyrimidin-2-yl)azetidin-1-yl)cyclohexyl)oxy)-1-oxoisoindolin-2-yl)piperidine-2,6-dione] showed a DC50 [1] of over 30000 nM, a DC50 [2] of over 30000 nM and an EC50 [3] of 13 nM. The inhibition at 1 µM [4] was 21.2% and the DC50 [5] was 123 nM.
`COc1ccc(C2CN([C@H]3CCCC3Oc3ccc4c(c3)CN(C3CCC(=O)NC3=O)C4=O)C2)cn1` (mixture of isomers) [Compound 201-B, Rac-3-(5-(((cis)-2-(3-(6-methoxypyridin-3-yl)azetidin-1-yl)cyclopentyl)oxy)-1-oxoisoindolin-2-yl)piperidine-2,6-dione] was tested, and the DC50 [1] was over 30000 nM, the DC50 [2] was over 30000 nM and the EC50 [3] was 36 nM. It also gave an inhibition at 1 µM [4] of 62.7% and a DC50 [5] of 78 nM.
`O=C1CCC(N2Cc3cc(O[C@@H]4CCCC[C@H]4N4CC(c5ccc(Cl)cn5)C4)ccc3C2=O)C(=O)N1` (mixture of isomers) [Compound 163-B, Rac-3-(5-(((trans)-2-(3-(5-chloropyridin-2-yl)azetidin-1-yl)cyclohexyl)oxy)-1-oxoisoindolin-2-yl)piperidine-2,6-dione] was tested, and the DC50 [1] was over 30000 nM, the DC50 [2] was over 30000 nM and the EC50 [3] was 11 nM. The inhibition at 1 µM [4] was 71.5% and the DC50 [5] was 11 nM.
